Source: ChEMBL document CHEMBL1126511, “Protein damage caused by a synthetic enediyne core” (Bioorg Med Chem Lett, 1993)

Test system: HCT-116
Experiment: In vitro cytotoxicity against human colon carcinoma cell line HCT116
Format: functional, cell-based

## O=C1C2=CCC[C@@]1(O)C#C/C=C\C#C[C@@H]2O
  IC50: 100 nM
